Test results reported in ChEMBL document CHEMBL1201862, “PubChem BioAssay data set” (2004).
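Cells were grown in 96-well plates and exposed to each compound for 48 hours at five concentrations; endpoints were interpolated linearly between bracketing concentrations, or set to the highest concentration if not reached. Abbreviation: GI50, concentration required for 50% inhibition of growth.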 The source made the active and inactive calls. Cut-off read from the data, not from the text of the source: active = GI50 up to about 1.1 µM and inactive = higher.

Columns and labels:
Assay in all cases: DTP human tumour cell line panel, 48 h
[1] = tested on: SR
[2] = tested on: U-251
[3] = tested on: OVCAR-4
[4] = tested on: COLO 205
[5] = tested on: K562
[6] = tested on: 786-0
[7] = tested on: IGROV-1
[8] = tested on: TK-10
[9] = tested on: SF-539
[10] = tested on: CCRF-CEM
[11] = tested on: MDA-N
[12] = tested on: CAKI-1
[13] = tested on: RXF 393
[14] = tested on: NCI-H460
[15] = tested on: NCI-H226
[16] = tested on: DU-145
[17] = tested on: UACC-257
[18] = tested on: MDA-MB-231
[19] = tested on: SNB-75
[20] = tested on: OVCAR-3
[21] = tested on: PC-3
[22] = tested on: SK-MEL-5
[23] = tested on: HOP-62
[24] = tested on: HL-60
[25] = tested on: NCI-H23
[26] = tested on: KM12
[27] = tested on: MCF7
[28] = tested on: LOX IMVI
[29] = tested on: SF-295
[30] = tested on: MDA-MB-435
[31] = tested on: SK-MEL-28
[32] = tested on: HCC 2998
[33] = tested on: Hs-578T
[34] = tested on: HOP-92
[35] = tested on: ACHN
[36] = tested on: HT-29
[37] = tested on: HCT-116
[38] = tested on: SF-268
[39] = tested on: SN12C
[40] = tested on: SK-MEL-2
[41] = tested on: NCI/ADR-RES
[42] = tested on: UACC-62
[43] = tested on: OVCAR-5
[44] = tested on: RPMI-8226
[45] = tested on: HCT-15
[46] = tested on: OVCAR-8
[47] = tested on: NCI-H522
[48] = tested on: SK-OV-3
[49] = tested on: A549
[50] = tested on: SW-620
[51] = tested on: Malme-3M
[52] = tested on: EKVX
[53] = tested on: BT-549
[54] = tested on: T47D
[55] = tested on: M14
[56] = tested on: MOLT-4
[57] = tested on: SNB-19
[58] = tested on: A498
[59] = tested on: UO-31

## Cc1nn(C(=O)c2ccccc2O)c2c1C(c1ccccc1O)SC(=N)N2 (stereo not given)
[1]
  GI50: 1.95 µM (inactive)
[2]
  GI50: 4.39 µM (inactive)
[3]
  GI50: 2.53 µM (inactive)
[4]
  GI50: > 10 µM (inactive)
[5]
  GI50: 3.24 µM (inactive)
[6]
  GI50: 4.53 µM (inactive)
[7]
  GI50: 1.01 µM (active)
[8]
  GI50: 1.69 µM (inactive)
[9]
  GI50: 0.421 µM (active)
[10]
  GI50: 3.1 µM (inactive)
[11]
  GI50: > 10 µM (inactive)
[12]
  GI50: 8.07 µM (inactive)
[13]
  GI50: > 10 µM (inactive)
[14]
  GI50: 4.36 µM (inactive)
[15]
  GI50: 1.49 µM (inactive)
[16]
  GI50: 8.85 µM (inactive)
[17]
  GI50: 1.5 µM (inactive)
[18]
  GI50: 0.649 µM (active)
[19]
  GI50: 4.06 µM (inactive)
[20]
  GI50: 2.54 µM (inactive)
[21]
  GI50: 7.71 µM (inactive)
[22]
  GI50: 2.46 µM (inactive)
[23]
  GI50: 0.869 µM (active)
[24]
  GI50: 2.22 µM (inactive)
[25]
  GI50: 2.94 µM (inactive)
[26]
  GI50: 4.65 µM (inactive)
[27]
  GI50: 2.75 µM (inactive)
[28]
  GI50: 6.1 µM (inactive)
[29]
  GI50: 7.53 µM (inactive)
[30]
  GI50: 3.08 µM (inactive)
[31]
  GI50: > 10 µM (inactive)
[32]
  GI50: > 10 µM (inactive)
[33]
  GI50: > 10 µM (inactive)
[34]
  GI50: > 10 µM (inactive)
[35]
  GI50: 3.44 µM (inactive)
[36]
  GI50: > 10 µM (inactive)
[37]
  GI50: 4.12 µM (inactive)
[38]
  GI50: 6.81 µM (inactive)
[39]
  GI50: 4.82 µM (inactive)
[40]
  GI50: 4.65 µM (inactive)
[41]
  GI50: 4.09 µM (inactive)
[42]
  GI50: 3.08 µM (inactive)
[43]
  GI50: 6.32 µM (inactive)
[44]
  GI50: 3.34 µM (inactive)
[45]
  GI50: 4.42 µM
[46]
  GI50: 2.82 µM (inactive)
[47]
  GI50: 3.47 µM (inactive)
[48]
  GI50: 5.02 µM (inactive)
[49]
  GI50: 8.04 µM (inactive)
[50]
  GI50: 6.11 µM (inactive)
[51]
  GI50: > 10 µM (inactive)
[52]
  GI50: 9.27 µM (inactive)
[53]
  GI50: > 10 µM (inactive)
[54]
  GI50: 5.78 µM (inactive)
[55]
  GI50: 4.54 µM (inactive)
[56]
  GI50: 2.67 µM (inactive)

## O=C(O)CCC(NC(=O)c1ccc(Nc2nc3ccc(C(F)(F)F)cc3nc2C(=O)O)cc1)C(=O)O (stereo not given)
[1]
  GI50: > 100 µM (inactive)
[2]
  GI50: > 100 µM (inactive)
[4]
  GI50: > 100 µM (inactive)
[5]
  GI50: > 100 µM (inactive)
[6]
  GI50: > 100 µM (inactive)
[7]
  GI50: > 100 µM (inactive)
[57]
  GI50: > 100 µM (inactive)
[8]
  GI50: > 100 µM (inactive)
[9]
  GI50: > 100 µM (inactive)
[10]
  GI50: > 100 µM (inactive)
[11]
  GI50: > 100 µM (inactive)
[13]
  GI50: > 100 µM (inactive)
[15]
  GI50: > 100 µM (inactive)
[16]
  GI50: > 100 µM (inactive)
[17]
  GI50: > 100 µM (inactive)
[18]
  GI50: > 100 µM (inactive)
[19]
  GI50: > 100 µM (inactive)
[20]
  GI50: 69.8 µM (inactive)
[21]
  GI50: > 100 µM (inactive)
[22]
  GI50: > 100 µM (inactive)
[23]
  GI50: > 100 µM (inactive)
[24]
  GI50: > 100 µM (inactive)
[25]
  GI50: > 100 µM (inactive)
[26]
  GI50: > 100 µM (inactive)
[27]
  GI50: > 100 µM (inactive)
[28]
  GI50: > 100 µM (inactive)
[29]
  GI50: > 100 µM (inactive)
[30]
  GI50: > 100 µM (inactive)
[32]
  GI50: > 100 µM (inactive)
[33]
  GI50: > 100 µM (inactive)
[34]
  GI50: > 100 µM (inactive)
[35]
  GI50: > 100 µM (inactive)
[36]
  GI50: > 100 µM (inactive)
[37]
  GI50: > 100 µM (inactive)
[38]
  GI50: > 100 µM (inactive)
[39]
  GI50: > 100 µM (inactive)
[40]
  GI50: > 100 µM (inactive)
[58]
  GI50: > 100 µM (inactive)
[41]
  GI50: > 100 µM (inactive)
[42]
  GI50: > 100 µM (inactive)
[43]
  GI50: > 100 µM (inactive)
[44]
  GI50: > 100 µM (inactive)
[45]
  GI50: > 100 µM
[46]
  GI50: > 100 µM (inactive)
[47]
  GI50: > 100 µM (inactive)
[59]
  GI50: > 100 µM (inactive)
[49]
  GI50: > 100 µM (inactive)
[50]
  GI50: > 100 µM (inactive)
[52]
  GI50: > 100 µM (inactive)
[53]
  GI50: > 100 µM (inactive)
[54]
  GI50: > 100 µM (inactive)
[55]
  GI50: > 100 µM (inactive)
[56]
  GI50: > 100 µM (inactive)

## CCOC(=O)C1(C#N)C(C#N)(C#N)C1(C#N)C#N
[1]
  GI50: 88.5 µM (inactive)
[2]
  GI50: > 100 µM (inactive)
[3]
  GI50: > 100 µM (inactive)
[4]
  GI50: > 100 µM (inactive)
[5]
  GI50: > 100 µM (inactive)
[6]
  GI50: > 100 µM (inactive)
[7]
  GI50: > 100 µM (inactive)
[57]
  GI50: > 100 µM (inactive)
[8]
  GI50: > 100 µM (inactive)
[10]
  GI50: > 100 µM (inactive)
[11]
  GI50: > 100 µM (inactive)
[12]
  GI50: > 100 µM (inactive)
[13]
  GI50: > 100 µM (inactive)
[14]
  GI50: > 100 µM (inactive)
[15]
  GI50: > 100 µM (inactive)
[16]
  GI50: > 100 µM (inactive)
[17]
  GI50: > 100 µM (inactive)
[18]
  GI50: > 100 µM (inactive)
[21]
  GI50: > 100 µM (inactive)
[22]
  GI50: > 100 µM (inactive)
[23]
  GI50: > 100 µM (inactive)
[24]
  GI50: > 100 µM (inactive)
[25]
  GI50: > 100 µM (inactive)
[26]
  GI50: > 100 µM (inactive)
[27]
  GI50: > 100 µM (inactive)
[28]
  GI50: > 100 µM (inactive)
[29]
  GI50: > 100 µM (inactive)
[30]
  GI50: > 100 µM (inactive)
[31]
  GI50: > 100 µM (inactive)
[32]
  GI50: > 100 µM (inactive)
[33]
  GI50: > 100 µM (inactive)
[34]
  GI50: > 100 µM (inactive)
[35]
  GI50: > 100 µM (inactive)
[36]
  GI50: > 100 µM (inactive)
[37]
  GI50: > 100 µM (inactive)
[38]
  GI50: > 100 µM (inactive)
[39]
  GI50: > 100 µM (inactive)
[40]
  GI50: > 100 µM (inactive)
[58]
  GI50: > 100 µM (inactive)
[41]
  GI50: > 100 µM (inactive)
[42]
  GI50: > 100 µM (inactive)
[43]
  GI50: > 100 µM (inactive)
[44]
  GI50: > 100 µM (inactive)
[45]
  GI50: > 100 µM
[46]
  GI50: > 100 µM (inactive)
[47]
  GI50: > 100 µM (inactive)
[48]
  GI50: > 100 µM (inactive)
[59]
  GI50: > 100 µM (inactive)
[49]
  GI50: > 100 µM (inactive)
[50]
  GI50: > 100 µM (inactive)
[51]
  GI50: > 100 µM (inactive)
[52]
  GI50: > 100 µM (inactive)
[53]
  GI50: > 100 µM (inactive)
[54]
  GI50: > 100 µM (inactive)
[55]
  GI50: > 100 µM (inactive)
[56]
  GI50: > 100 µM (inactive)
